According to patent publication US8999937B2, “Glucocorticoid induced leucine zipper mimetics as therapeutic agents in multiple sclerosis” (Indiana University Research and Technology Corporation, priority 2011, dated 2015):
Entries after “also recorded” stand apart in the source; their conditions may differ.

Assays:
T-bet and GATA-3 mRNA = experiment: Real time PCR for T-bet and GATA-3 in CD4+ LNC restimulated in vitro; assay type: cell-based, mouse; conditions: CD4+ LNC restimulated in vitro with PLP139-151
Description: Intracellular delivery of r-GILZ was detected using […]-labeled anti-DDK mAb in permeabilized cells and measured by FACS Calibur. […] The delivery efficiency was assessed by mean fluorescence intensity (D). […] (F)-(I) show supernatants collected at 48 h were assessed for IFN-γ (F), IL-12 (G), IL-17 (H), and IL-10 (I) by ELISA. […] Five micrograms of nuclear extracts were tested for binding of the activated p65 NF-κB subunit to an NF-κB consensus sequence using the TransAM NF-κB ELISA kit. The p65 DNA binding activity was calculated as the ratio of absorbance from PLP139-151-stimulated cells to that of unstimulated cells. Values are the average±S.D. performed 3 times in duplicate. (K)-(L) show real time PCR for T-bet (K) and GATA-3 (L) was performed using 50 ng of cDNA isolated from CD4+LNC of R-EAE mice re-stimulated in vitro with PLP139-151 under the indicated conditions.
Proliferative responses of CD4+ lymph node cells and splenocytes harvested 10 days post-induction upon re-stimulation in vitro with PLP^139-151 in the presence or absence of chariot peptide complexed with purified GILZ protein and/or GILZ mimetics at varying concentrations is determined as described. IL-2, TNF-α, IFN-γ, IL12-p40, IL-17, IL-4, IL-5, IL-10 and TGF-β) of the cells following similar in vitro restimulation is determined by ELISA. Measurement of relative quantities of Th1 and Th2 specific transcription factors is determined by real time PCR using ABI primers.

[1] = tested on: CD4+ splenocytes from R-EAE mice; experiment: Ex vivo proliferation of CD4+ splenocytes from treated R-EAE mice; assay type: in vivo, mouse; conditions: for proliferative responses (mean Δcpm) to PLP139-151: mice treated on day 0, cells 45 days post-immunization; for average proliferative response of unstimulated CD4+ splenocytes: in cpm
Description: Data represent average±S.D. from two experiments (n=9/group). (C)-(H) show GILZ-peptide treatment suppresses Th1 cytokines in R-EAE. […] C, proliferative responses of CD4+ splenocytes are plotted as Δcpm±S.E. #, p<0.05 as compared with the responses of cells from vehicle-treated mice. Supernatant collected at 48 h from separate CD4+ splenocyte cultures were assessed for (D) IL-12, (E) IFN-γ, (F) IL-17, (G) IL-10, and (H) TGF-β by ELISA. * and # represent p<0.05 as compared with vehicle or control peptide-treated groups, respectively.
(§1) Supernatants collected at 24 and 48 h were assessed for specific cytokines using the OptEIA kits (BD Biosciences). Proliferation assays included parallel cultures for 72 h with a final 18-h pulse with [^3H]thymidine measured by liquid scintillation counting (Microbeta, Turku, Finland).

[2] = tested on: T-bet, GATA-3, IL-10 and FoxP3 mRNA; experiment: Quantitative RT-PCR in CD4+ LNC from treated R-EAE mice; assay type: in vivo, mouse; conditions: for GATA-3 mRNA / T-bet mRNA: mice treated on day 0, re-stimulation with PLP139-151; for FoxP3 mRNA / IL-10 mRNA: mice treated on day 0, vs vehicle/control-P
Description: 50 ng of cDNA from CD4+LNC were used for quantitative measurement of message for (A) T-bet, (B) GATA-3, (C) IL-10, and (D) FoxP3 by quantitative RT-PCR. (E), gel electrophoresis of representative products. * and # represent p<0.05 by analysis of variance as compared with vehicle or control peptide-treated group, respectively.

[3] = tested on: activated p65 NF-κB subunit; experiment: NF-κB assay (TransAM): p65 DNA binding in nuclear extracts; assay type: cell-based, mouse; conditions: CD4+ LNC restimulated with PLP139-151, 24 h
Description: Nuclear and cytoplasmic protein fractions of CD4+ T cells obtained using a nuclear extraction kit are assessed for NF-κB activation and p65 nuclear translocation using Trans^AM NF-κB kits (Active Motif, Carlsbad, Calif.). The effect of exogenous GILZ and GILZ mimetics on phosphorylation and proteolytic degradation of IκB proteins is determined by Western blot analysis of nuclear and cytoplasmic protein fractions from CD4+ T cells pretreated with GILZ/chariot peptide complex prior to stimulation.
5 μg of nuclear extracts isolated from PLP139-151 restimulated CD4+ cells from R-EAE mice were incubated in a 96-well plate coated with oligonucleotides containing the NF-κB consensus binding site. The activated NF-κB bound to DNA was detected by anti-p65 antibody followed by a peroxidase-coupled secondary antibody and substrate using the TransAM kit protocol (Active Motif).

[4] = tested on: CD4+ LNC from PLP primed SJL/J mice; experiment: In vitro proliferation ([3H]-thymidine) of PLP139-151 restimulated CD4+ LNC from primed SJL/J mice; assay type: cell-based, mouse; conditions: for proliferative response, in words: vs PLP139-151 alone or vs r-GILZ
Description: CD4+ lymph node cells (LNC) isolated from the draining lymph nodes harvested from SJL/J mice 10 days after immunization with PLP139-151 were cultured in 96-well plates at […] in complete RPMI and restimulated with the PLP peptide (40 μg/ml) for 72 h, including a final 16-h pulse with [^3H]-thymidine. […] Separate cultures stimulated with ova (40 μg/ml) served as control for antigen specificity. Irradiated splenocytes from syngenic mice were used as antigen presenting cells (APC). Cultures were harvested onto glass fiber mats using a Skatron harvester (Skatron, Sterling, Va.), and the levels of [^3H]-thymidine incorporation were determined by liquid scintillation counting (Microbeta; Wallac, Turku, Finland). Results were confirmed by replicate experiments. Data are expressed as Δcpm (counts/min incorporated in antigen-stimulated culture-counts/min incorporated by control unstimulated culture).
as §1

[5] = tested on: CD4+ LNC from PLP primed SJL/J mice; experiment: In vitro cytokine secretion (ELISA) by PLP139-151 restimulated CD4+ cells from primed SJL/J mice; assay type: cell-based, mouse; conditions: for IFN-γ secretion / IL-10 secretion / IL-12 secretion / IL-17 secretion: CD4+ LNC, PLP restimulated, 48 h; for IFN-γ secretion / IL-10 secretion / IL-12 secretion: vs untreated/control peptide; for IL-17 secretion: vs untreated/control-P; for cytokine secretion (INF-γ and IL-12p40) by in-vivo primed T cells: CD4+ splenocytes, PLP 40 μg/ml, 24 hrs, FIG. 5
Description: CD4+ splenocytes isolated 10 days post-immunization from SJL mice induced EAE were co-cultured with irradiated syngenic APC and restimulated with PLP (40 μg/ml) in the presence of complex of chariot peptide with rGILZ protein/dexamethasone/GILZ-P at indicated concentrations. Supernatants collected after 24 hrs were assessed for INF-γ and IL-12p40 by ELISA. *=p<0.05 when compared to cells +PLP.
Supernatants from separate CD4+LNC cultured similarly collected at 24 hrs and 48 hrs were stored at −20° C. The levels of cytokines, IL-10, IL-12, and interferon gamma (IFN-γ) were determined by ELISA, using OptEIA kits, according to the manufacturer's recommendations (BD PharMingen). Group comparisons were made by one way analysis of variance (ANOVA) followed by Tukey's post-hoc.
as §1

Row | Substance | GATA-3 mRNA (T-bet and GATA-3 mRNA) | T-bet mRNA (T-bet and GATA-3 mRNA) | proliferative responses (mean Δcpm) to PLP139-151 [1] | average proliferative response of unstimulated CD4+ splenocytes ([1]; mice treated on day 0) | GATA-3 mRNA [2] | T-bet mRNA [2] | FoxP3 mRNA [2] | IL-10 mRNA [2] | p65-specific DNA binding activity in nuclear extracts [3] | proliferative response, in words [4] | IFN-γ secretion [5] | IL-10 secretion [5] | IL-12 secretion [5] | IL-17 secretion [5] | cytokine secretion (INF-γ and IL-12p40) by in-vivo primed T cells [5] | further results
1 | Ac-CLSPEEPAPESPQVPEAPGGSAV-NH2 [GILZ-P] | elevated | significantly decreased | 5,733±208 cpm | 2,376±602 | elevated | significantly lower | significantly higher | significantly higher | significantly decreased | significantly decreased proliferative response | significantly lower | elevated | significantly lower | significantly lower | suppresses | GATA-3 mRNA (T-bet and GATA-3 mRNA; listed as GILZ-peptide): up-regulated; T-bet mRNA (T-bet and GATA-3 mRNA; listed as GILZ-peptide): down-regulated; average proliferative response of unstimulated CD4+ splenocytes ([1]; mice treated on day 12): 1,823±532; proliferative response (mean Δcpm), maximum inhibition ([4]; 250 μM GILZ-P with Pep-1): 1404±106 cpm; proliferative response (Δcpm) ([4]; GILZ peptide in the absence of Pep-1): 6663±173 cpm; proliferative response (Δcpm) ([4]; GILZ peptide in the absence of Pep-1, listed as GILZ peptide): 6663+/−173 cpm; proliferative response (Δcpm) ([4]; peptide 500 μM in complex with Pep-1, PLP 40 μg/ml, 72 h): 1702+/−217 cpm; proliferative response, in words ([4]; listed as GILZ peptide): greater inhibition than those treated with r-GILZ at all concentrations; IFN-γ secretion ([5]; listed as GILZ-peptide): significantly decreased; IL-12 secretion ([5]; listed as GILZ-peptide): significantly decreased
2 | r-GILZ: recombinant glucocorticoid induced leucine zipper protein (Abnova; OriGene with C-terminal DDK) | up-regulated; also recorded: elevated | down-regulated; also recorded: significantly decreased | 16,880±264 cpm | 2,037±603 | elevated | significantly lower | significantly higher | significantly higher | significantly decreased | significantly decreased proliferative response | significantly decreased; also recorded: significantly lower | elevated | significantly decreased; also recorded: significantly lower | significantly lower | suppresses | proliferative response (Δcpm) ([4]; r-GILZ 200 ng with Pep-1, PLP 40 μg/ml, 72 h): 4658+/−266 cpm
